# Laboratory results published in patent publication US11072591B2, “Tetrazole compounds and their use in the treatment of tuberculosis” (GLAXOSMITHKLINE INTELLECTUAL PROPERTY DEVELOPMENT LIMITED, priority 2017, dated 2021).
# Read-outs that look alike come from different tables or passages of the source.
# Test system: M. tuberculosis H37Rv
# Test: Mycobacterium tuberculosis H37Rv Inhibition Assay (Whole Cell Assay), MIC
# Assay type: cell-based
# [1] = 144 h, M. tuberculosis H37Rv, Middlebrook 7H9 + ADC, 37° C. six days, resazurin readout, read-out: MIC_H37Rv
Structure (SMILES),MIC [1],"MIC (M. tuberculosis H37Rv whole cell assay, value from repeated testing of the compound, read-out: MIC)"
"Cc1cnc(Cn2nnc(-c3ccc(S(=O)(=O)NCC#N)cc3)n2)cn1 [Example 91, N-(cyanomethyl)-4-(2-((5-methylpyrazin-2-yl)methyl)-2H-tetrazol-5-yl)benzenesulfonamide]",< 0.1 µM,–
NC(=O)CNS(=O)(=O)c1ccc(-c2nnn(Cc3ccc(F)cn3)n2)cc1 [Example 38],< 0.1 µM,–
"C[C@@H](O)CNS(=O)(=O)c1ccc(-c2cn(Cc3ccc(F)cc3)nn2)cc1 [Example 70, (R)-4-(1-(4-fluorobenzyl)-1H-1,2,3-triazol-4-yl)-N-(2-hydroxypropyl) benzenesulfonamide]",< 0.1 µM,–
COC(=O)CNS(=O)(=O)c1ccc(-c2nnn(Cc3ccncc3)n2)cc1 [Example 44],5 to 10 µM,–
"Cc1cc(-c2nnn(Cc3ccc(F)cn3)n2)ccc1S(=O)(=O)NCCO [Example 71, 4-(2-((5-fluoropyridin-2-yl)methyl)-2H-tetrazol-5-yl)-N-(2-hydroxyethyl)-2-methyl Benzenesulfonamide]",< 0.1 µM,–
Cc1ccc(Cn2nnc(-c3ccc(S(=O)(=O)NCCO)cc3)n2)nc1 [Example 32],1 to 5 µM,–
"C[C@@H](c1ccc(F)cn1)n1nnc(-c2ccc(S(=O)(=O)NCCO)cc2)n1 [Example 111 (S-isomer), (S)-4-(2-(1-(5-fluoropyridin-2-yl)ethyl)-2H-tetrazol-5-yl)-N-(2-hydroxyethyl)benzenesulfonamide]",–,0.6 to 1.88 µM
N#CCNS(=O)(=O)c1ccc(-c2nnn(Cc3ccncn3)n2)cc1 [Example 58],< 0.1 µM,–
"COc1cc(-c2nnn(Cc3ccncc3)n2)ccc1S(=O)(=O)NCCO [Example 48, N-(2-hydroxyethyl)-2-methoxy-4-(2-(pyridin-4-ylmethyl)-2H-tetrazol-5-yl)benzenesulfonamide]",1 to 5 µM,–
